From patent US20240246942A1, “KINASE INHIBITORS FOR THE TREATMENT OF NEURODEGENERATIVE DISEASES” (priority 2020, published 2024)

Legend:
Assay in all cases: biochemical
[1] = biological target: T1, panel of 374 wild-type kinases (Homo sapiens, UniProt Q15831); details: read-out: % Enzyme Activity (relative to DMSO controls), LKB1
T1 construct: purchased Reaction Biology Corporation
T1 sequence (Q15831 1-433): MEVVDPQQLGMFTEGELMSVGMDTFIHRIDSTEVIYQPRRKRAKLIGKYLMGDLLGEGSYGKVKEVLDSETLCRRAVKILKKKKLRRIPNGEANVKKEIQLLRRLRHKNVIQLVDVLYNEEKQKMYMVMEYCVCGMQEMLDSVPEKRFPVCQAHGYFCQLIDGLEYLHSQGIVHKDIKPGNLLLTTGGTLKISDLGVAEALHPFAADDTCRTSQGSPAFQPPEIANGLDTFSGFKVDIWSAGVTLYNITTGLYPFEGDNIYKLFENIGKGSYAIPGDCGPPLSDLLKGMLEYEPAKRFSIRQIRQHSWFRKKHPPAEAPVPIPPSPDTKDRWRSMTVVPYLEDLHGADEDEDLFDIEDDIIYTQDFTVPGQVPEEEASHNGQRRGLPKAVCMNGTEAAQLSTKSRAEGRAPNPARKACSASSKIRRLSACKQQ

[2] = biological target: T2, panel of 374 wild-type kinases (Homo sapiens, UniProt Q16584); details: read-out: % Enzyme Activity (relative to DMSO controls), MLK3/MAP3K11
T2 construct: purchased Reaction Biology Corporation
T2 sequence (Q16584 whole entry): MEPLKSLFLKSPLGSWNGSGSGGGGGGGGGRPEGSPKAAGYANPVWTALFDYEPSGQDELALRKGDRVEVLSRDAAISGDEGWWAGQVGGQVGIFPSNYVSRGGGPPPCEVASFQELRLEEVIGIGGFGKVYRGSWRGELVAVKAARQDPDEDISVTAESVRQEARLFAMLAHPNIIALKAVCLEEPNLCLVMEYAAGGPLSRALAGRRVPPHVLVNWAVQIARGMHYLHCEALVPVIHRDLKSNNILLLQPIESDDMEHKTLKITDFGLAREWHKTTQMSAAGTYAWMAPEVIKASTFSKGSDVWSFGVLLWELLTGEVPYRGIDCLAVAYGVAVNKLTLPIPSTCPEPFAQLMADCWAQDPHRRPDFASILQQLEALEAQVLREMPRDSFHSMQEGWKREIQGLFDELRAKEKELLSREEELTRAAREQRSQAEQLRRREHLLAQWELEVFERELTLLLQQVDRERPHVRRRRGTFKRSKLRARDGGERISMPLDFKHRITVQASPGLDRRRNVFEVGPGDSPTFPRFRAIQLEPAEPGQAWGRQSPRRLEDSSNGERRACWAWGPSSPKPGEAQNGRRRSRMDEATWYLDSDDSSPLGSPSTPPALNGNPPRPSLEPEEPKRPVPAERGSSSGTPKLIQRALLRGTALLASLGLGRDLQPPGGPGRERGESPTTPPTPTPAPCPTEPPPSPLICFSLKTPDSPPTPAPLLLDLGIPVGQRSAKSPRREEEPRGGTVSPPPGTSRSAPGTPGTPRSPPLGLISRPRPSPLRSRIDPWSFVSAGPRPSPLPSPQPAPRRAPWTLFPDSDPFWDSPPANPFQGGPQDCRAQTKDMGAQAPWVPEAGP

[3] = biological target: T3, panel of 374 wild-type kinases (Homo sapiens, UniProt P42680); details: read-out: % Enzyme Activity (relative to DMSO controls), kinase TEC
T3 construct: purchased Reaction Biology Corporation
T3 sequence (P42680 1-631): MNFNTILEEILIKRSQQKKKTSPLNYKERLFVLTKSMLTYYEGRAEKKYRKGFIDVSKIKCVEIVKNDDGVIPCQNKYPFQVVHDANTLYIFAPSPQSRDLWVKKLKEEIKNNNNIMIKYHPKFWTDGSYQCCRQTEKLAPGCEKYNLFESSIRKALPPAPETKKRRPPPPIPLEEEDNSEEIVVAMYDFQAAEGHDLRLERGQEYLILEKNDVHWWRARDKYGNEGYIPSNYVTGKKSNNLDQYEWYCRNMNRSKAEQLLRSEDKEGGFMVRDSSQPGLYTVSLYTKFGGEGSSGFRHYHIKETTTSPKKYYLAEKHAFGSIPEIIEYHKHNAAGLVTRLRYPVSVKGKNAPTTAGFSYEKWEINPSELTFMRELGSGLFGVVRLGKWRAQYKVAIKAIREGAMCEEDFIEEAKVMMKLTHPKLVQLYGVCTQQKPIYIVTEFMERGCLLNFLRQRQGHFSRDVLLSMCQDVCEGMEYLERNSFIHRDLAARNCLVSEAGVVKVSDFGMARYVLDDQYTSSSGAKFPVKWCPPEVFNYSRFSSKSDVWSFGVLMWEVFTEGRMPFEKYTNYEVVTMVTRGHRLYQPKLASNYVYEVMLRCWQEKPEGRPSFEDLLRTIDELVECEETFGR

[4] = biological target: T4, panel of 374 wild-type kinases (Homo sapiens, UniProt Q9BYP7); details: read-out: % Enzyme Activity (relative to DMSO controls), kinase WNK3
T4 construct: purchased Reaction Biology Corporation
T4 sequence (Q9BYP7 whole entry): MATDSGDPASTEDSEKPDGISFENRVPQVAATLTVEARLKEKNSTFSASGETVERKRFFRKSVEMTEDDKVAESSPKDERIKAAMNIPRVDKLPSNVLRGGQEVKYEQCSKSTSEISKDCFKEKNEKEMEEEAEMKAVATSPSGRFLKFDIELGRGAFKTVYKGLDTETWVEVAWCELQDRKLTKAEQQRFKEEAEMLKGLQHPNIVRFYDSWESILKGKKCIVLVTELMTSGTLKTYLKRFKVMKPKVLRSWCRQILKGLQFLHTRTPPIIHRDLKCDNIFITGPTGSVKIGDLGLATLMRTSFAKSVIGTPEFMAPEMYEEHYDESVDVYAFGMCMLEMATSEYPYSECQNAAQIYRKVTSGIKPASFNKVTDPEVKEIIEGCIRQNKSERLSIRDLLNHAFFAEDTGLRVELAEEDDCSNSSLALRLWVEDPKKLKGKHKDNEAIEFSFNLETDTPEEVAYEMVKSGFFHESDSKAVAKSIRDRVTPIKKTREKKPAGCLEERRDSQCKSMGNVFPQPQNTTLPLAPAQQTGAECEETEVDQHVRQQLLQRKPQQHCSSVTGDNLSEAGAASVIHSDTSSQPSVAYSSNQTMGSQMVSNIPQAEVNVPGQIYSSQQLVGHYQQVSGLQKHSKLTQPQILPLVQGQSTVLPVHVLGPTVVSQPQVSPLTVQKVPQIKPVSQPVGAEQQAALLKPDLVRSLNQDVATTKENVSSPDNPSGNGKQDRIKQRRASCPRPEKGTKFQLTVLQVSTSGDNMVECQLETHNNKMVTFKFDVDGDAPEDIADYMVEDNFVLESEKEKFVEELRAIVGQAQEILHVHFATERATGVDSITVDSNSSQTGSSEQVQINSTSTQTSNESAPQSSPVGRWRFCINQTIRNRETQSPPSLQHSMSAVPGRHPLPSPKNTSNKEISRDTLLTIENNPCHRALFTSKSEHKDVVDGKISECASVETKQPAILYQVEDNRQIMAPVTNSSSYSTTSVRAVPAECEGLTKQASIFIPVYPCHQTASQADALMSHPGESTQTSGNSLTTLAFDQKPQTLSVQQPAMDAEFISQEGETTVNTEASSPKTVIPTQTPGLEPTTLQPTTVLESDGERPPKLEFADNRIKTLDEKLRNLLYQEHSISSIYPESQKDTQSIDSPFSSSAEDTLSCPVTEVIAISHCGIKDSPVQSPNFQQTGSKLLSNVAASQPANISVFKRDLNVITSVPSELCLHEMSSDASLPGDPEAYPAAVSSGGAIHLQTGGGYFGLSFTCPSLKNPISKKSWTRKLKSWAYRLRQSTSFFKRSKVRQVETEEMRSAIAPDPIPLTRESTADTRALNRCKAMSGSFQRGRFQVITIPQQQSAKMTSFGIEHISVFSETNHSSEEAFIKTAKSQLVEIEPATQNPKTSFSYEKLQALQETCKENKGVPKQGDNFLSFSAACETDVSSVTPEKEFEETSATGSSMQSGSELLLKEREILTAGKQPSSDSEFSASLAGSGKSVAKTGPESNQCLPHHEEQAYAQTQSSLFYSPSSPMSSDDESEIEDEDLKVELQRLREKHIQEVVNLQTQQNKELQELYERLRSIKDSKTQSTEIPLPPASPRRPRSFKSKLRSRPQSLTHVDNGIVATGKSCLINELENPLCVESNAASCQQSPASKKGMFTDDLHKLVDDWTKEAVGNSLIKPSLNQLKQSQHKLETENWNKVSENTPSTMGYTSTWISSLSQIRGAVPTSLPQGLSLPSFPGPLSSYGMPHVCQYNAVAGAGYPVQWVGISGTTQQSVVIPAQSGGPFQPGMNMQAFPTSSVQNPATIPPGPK

[5] = biological target: T5, panel of 374 wild-type kinases (Homo sapiens, UniProt P42684); details: read-out: % Enzyme Activity (relative to DMSO controls), ABL2/ARG
T5 construct: purchased Reaction Biology Corporation
T5 sequence (P42684 whole entry): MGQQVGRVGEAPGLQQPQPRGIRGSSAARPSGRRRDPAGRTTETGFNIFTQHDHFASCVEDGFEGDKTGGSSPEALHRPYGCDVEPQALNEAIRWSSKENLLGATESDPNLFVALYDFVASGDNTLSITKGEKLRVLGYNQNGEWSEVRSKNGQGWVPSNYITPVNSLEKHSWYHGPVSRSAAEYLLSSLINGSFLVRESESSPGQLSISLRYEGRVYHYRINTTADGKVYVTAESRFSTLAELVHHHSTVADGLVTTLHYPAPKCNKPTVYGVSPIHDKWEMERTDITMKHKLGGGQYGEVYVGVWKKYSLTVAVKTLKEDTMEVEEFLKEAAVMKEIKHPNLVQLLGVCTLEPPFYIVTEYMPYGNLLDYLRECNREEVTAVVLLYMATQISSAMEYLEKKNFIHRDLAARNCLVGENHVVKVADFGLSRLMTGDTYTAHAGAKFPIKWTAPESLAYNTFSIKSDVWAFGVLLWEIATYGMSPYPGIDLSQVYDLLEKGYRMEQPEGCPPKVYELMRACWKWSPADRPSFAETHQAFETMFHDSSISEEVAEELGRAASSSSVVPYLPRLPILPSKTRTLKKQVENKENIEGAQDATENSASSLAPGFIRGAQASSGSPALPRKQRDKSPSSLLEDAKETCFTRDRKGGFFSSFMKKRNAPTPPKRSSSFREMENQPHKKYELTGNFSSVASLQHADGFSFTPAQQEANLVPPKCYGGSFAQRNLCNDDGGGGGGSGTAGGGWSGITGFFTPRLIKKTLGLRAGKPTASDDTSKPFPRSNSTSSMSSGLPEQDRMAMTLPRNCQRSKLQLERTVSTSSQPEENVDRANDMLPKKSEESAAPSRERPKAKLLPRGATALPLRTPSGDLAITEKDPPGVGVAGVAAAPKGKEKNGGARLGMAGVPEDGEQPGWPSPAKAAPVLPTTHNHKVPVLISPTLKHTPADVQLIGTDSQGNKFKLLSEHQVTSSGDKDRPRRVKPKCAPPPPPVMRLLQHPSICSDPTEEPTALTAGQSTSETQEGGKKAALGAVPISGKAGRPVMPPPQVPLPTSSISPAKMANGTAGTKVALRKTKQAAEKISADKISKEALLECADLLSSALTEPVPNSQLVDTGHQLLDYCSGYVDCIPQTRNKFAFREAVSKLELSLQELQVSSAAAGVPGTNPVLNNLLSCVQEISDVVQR

[6] = biological target: T6, panel of 374 wild-type kinases (Homo sapiens, UniProt Q96PN8); details: read-out: % Enzyme Activity (relative to DMSO controls), kinase TSSK3/STK22C
T6 construct: purchased Reaction Biology Corporation
T6 sequence (Q96PN8 1-268): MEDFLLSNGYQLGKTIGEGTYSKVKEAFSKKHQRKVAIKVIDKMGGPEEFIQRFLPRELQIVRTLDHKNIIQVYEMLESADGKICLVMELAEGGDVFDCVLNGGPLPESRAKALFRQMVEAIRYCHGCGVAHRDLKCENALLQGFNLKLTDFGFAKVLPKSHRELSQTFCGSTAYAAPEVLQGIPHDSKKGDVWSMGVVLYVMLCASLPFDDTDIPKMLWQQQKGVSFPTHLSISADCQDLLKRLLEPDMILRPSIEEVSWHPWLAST

[7] = biological target: T7, panel of 374 wild-type kinases (Homo sapiens, UniProt Q12851); details: read-out: % Enzyme Activity (relative to DMSO controls), GCK/MAP4K2
T7 construct: purchased Reaction Biology Corporation
T7 sequence (Q12851 1-820): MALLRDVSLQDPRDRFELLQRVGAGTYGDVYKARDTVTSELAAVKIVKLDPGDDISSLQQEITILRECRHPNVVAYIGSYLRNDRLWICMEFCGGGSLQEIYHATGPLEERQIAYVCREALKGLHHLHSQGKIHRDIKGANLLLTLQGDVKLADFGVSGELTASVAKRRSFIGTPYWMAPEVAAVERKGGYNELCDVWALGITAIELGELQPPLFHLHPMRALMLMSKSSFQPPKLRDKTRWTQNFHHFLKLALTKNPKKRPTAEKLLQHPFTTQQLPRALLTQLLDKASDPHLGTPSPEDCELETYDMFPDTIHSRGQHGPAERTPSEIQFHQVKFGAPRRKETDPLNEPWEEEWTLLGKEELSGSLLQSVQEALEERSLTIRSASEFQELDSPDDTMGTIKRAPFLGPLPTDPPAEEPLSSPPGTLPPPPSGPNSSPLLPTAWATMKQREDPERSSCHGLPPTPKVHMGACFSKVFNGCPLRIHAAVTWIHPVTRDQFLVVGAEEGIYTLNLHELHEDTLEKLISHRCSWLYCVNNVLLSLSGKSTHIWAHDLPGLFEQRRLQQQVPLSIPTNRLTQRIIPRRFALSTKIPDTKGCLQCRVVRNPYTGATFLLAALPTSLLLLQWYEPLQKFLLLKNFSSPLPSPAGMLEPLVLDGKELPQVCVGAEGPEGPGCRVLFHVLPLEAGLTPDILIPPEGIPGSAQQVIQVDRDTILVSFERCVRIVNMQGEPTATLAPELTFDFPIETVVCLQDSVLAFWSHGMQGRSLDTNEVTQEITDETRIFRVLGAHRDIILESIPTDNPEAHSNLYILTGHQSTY

Row | Compound | remaining activity at 10 µM ([1]; 10 uM) | remaining activity at 10 µM ([2]; 10 uM) | remaining activity at 10 µM ([3]; 10 uM) | remaining activity at 10 µM ([4]; 10 uM) | remaining activity at 10 µM ([5]; 10 uM) | remaining activity at 10 µM ([6]; 10 uM) | remaining activity at 10 µM ([7]; 10 uM) | remaining activity at 5 µM [1] | remaining activity at 5 µM [2] | remaining activity at 5 µM [3] | remaining activity at 5 µM [4] | remaining activity at 5 µM [5] | remaining activity at 5 µM [6] | remaining activity at 5 µM [7]
1 | Cc1sc(C(=O)NC2COC2)cc1-n1cc(NC(=O)Nc2c(F)cccc2Cl)cn1 [Compound 27, 4-(4-(3-(2-chloro-6-fluorophenyl)ureido)-1H-pyrazol-1-yl)-5-methyl-N-(oxetan-3-yl)thiophene-2-carboxamide] | 97.6% | 90.7% | 91.1% | 102% | 123% | 100% | 90.2% |  |  |  |  |  |  | 
2 | O=C(Nc1cnn(-c2csc(C(=O)NC3COC3)c2)c1)Nc1c(F)cccc1Cl [Compound 25, 4-(4-(3-(2-chloro-6-fluorophenyl)ureido)-1H-pyrazol-1-yl)-N-(oxetan-3-yl)thiophene-2-carboxamide] |  |  |  |  |  |  |  | 94.7% | 84.7% | 97.7% | 91.8% | 88.7% | 101% | 95.3%
3 | O=C(Nc1cnn(-c2csc(C(=O)NC3COC3)c2)c1)Nc1ccccc1Cl [Compound 17, 4-(4-(3-(2-chlorophenyl)ureido)-1H-pyrazol-1-yl)-N-(oxetan-3-yl)thiophene-2-carboxamide] |  |  |  |  |  |  |  | 118% | 93.5% | 97.2% | 99.5% | 92.7% | 97.7% | 105%
